# Measured values from publication PMC9401491, “The Novel Nucleoside Analogue ProTide NUC-7738 Overcomes Cancer Resistance Mechanisms In Vitro and in a First-In-Human Phase I Clinical Trial” (Clinical Cancer Research, 2021).
# Read-outs that look alike come from different tables or passages of the source.
# Assays:
# [1] = test system: HAP1 cells; test: MTT cell viability, HAP1 cells; format: cell-based; settings: Homo sapiens
# Method: (§1) Cells (10^4) were seeded into 96-well plates and then treated with NUC-7738 (lot 5132/E00393/119) or 3′-dA (cordycepin, catalog no. C3394, lot 067M4182, Sigma) for 48 hours. One and a half milligrams per milliliter MTT (catalog no. M6494, Invitrogen) in a 1:1 ratio was added to cell culture media. After a 2-hour incubation at 37°C, media was removed and 70 μl of isopropanol was added. Optical densities at 570 nm were measured using POLARstar Omega plate reader. Readouts were normalized and IC50 values were calculated using a nonlinear regression model in Graphpad prism (v8.3.0). Each biological replicate (at least 3) was performed in 4 technical replicates to calculate the average IC50 value. To measure apoptosis, the Guava NexinReagent (Luminex Corp.) was used following manufacturer's instructions. Fluorescence staining was measured with an automated 96-well Guava easyCyte Flow Cytometer (Luminex Corp.).
# [2] = test system: AGS; test: MTT cell viability, AGS; format: cell-based; settings: Homo sapiens, 48 hours, mean (±SEM), read-out: IC50
# Method: as §1
# [3] = test system: A498; test: MTT cell viability, A498; format: cell-based; settings: Homo sapiens; A498, 48 hours; mean (±SEM); read-out: IC50
# Method: as §1
# [4] = test system: ACHN; test: MTT cell viability, ACHN; format: cell-based; settings: Homo sapiens, 48 hours, mean (±SEM), read-out: IC50
# Method: as §1
# [5] = test system: CAKI-1; test: MTT cell viability, CAKI-1; format: cell-based; settings: Homo sapiens; CAKI-1, 48 hours; mean (±SEM); read-out: IC50
# Method: as §1
# [6] = test system: NCI-786; test: MTT cell viability, NCI-786; format: cell-based; settings: NCI-786, 48 hours; mean (±SEM); read-out: IC50
# Method: as §1
# [7] = test system: UO-31; test: MTT cell viability, UO-31; format: cell-based; settings: Homo sapiens; UO-31, 48 hours; mean (±SEM); read-out: IC50
# Method: as §1
# [8] = test system: 501MEL; test: MTT cell viability, 501MEL; format: cell-based; settings: 501MEL, 48 hours; mean (±SEM); read-out: IC50
# Method: as §1
# [9] = test system: Tera-1; test: MTT cell viability, Tera-1; format: cell-based; settings: Tera-1, 48 hours; mean (±SEM); read-out: IC50
# Method: as §1
# [10] = test system: SK-OV3; test: MTT cell viability, SK-OV3; format: cell-based; settings: Homo sapiens, SK-OV-3; SK-OV3, 48 hours; 2 biological replicates; read-out: IC50
# Method: as §1
# [11] = test system: cancer cell lines; test: IC50 across a wide set of cancer cell lines; format: cell-based; settings: mean across a wide set of cancer cell lines; read-out: mean IC50
# Method: as §1
# [12] = test system: HAP1 cells; test: HAP1 viability with ADA, hENT1 or ADK inhibitors; format: cell-based, human; settings: HAP1, EHNA, NBTI, A134974
# Method: as §1
# To assess whether NUC-7738 was resistant to ADA and could bypass ADK and hENT1 (SLC29A1), cell viability was measured after treatment with their specific and corresponding protein inhibitors: erythro-9-(2-Hydroxy-3-nonyl) adenine hydrochloride (EHNA), A134974, and S-(4-nitrobenzyl)-6-thioinosine (NBTI), respectively ([16, 17, 34, 35]).
# [13] = test system: Gastric or cervical cancer cells; test: Apoptosis by cleaved PARP Western blot; format: cell-based; settings: 50 and 100 μmol/L, 24 hours
# Method: as §1
# Cells were harvested and lyzed using RIPA lysis and extraction buffer (Thermo Scientific) following manufacturer's protocol. Twenty to 30 μg of total protein lysates was loaded on Mini-PROTEAN TGX precast gels (Bio-Rad). Separated proteins were transferred to a polyvinylidene difluoride (PVDF) membrane using Trans-Blot Turbo Transfer System (Bio-Rad) followed by incubation with primary and horseradish peroxidase (HRP)–conjugated secondary antibodies [anti-mouse, catalog no. […]
# [14] = test system: NUDT2 knockout HAP1 cells; test: Sensitivity of NUDT2 CRISPR/Cas9 knockout HAP1 cells; format: cell-based, human; settings: HAP1 NUDT2 knockout vs wildtype
# Method: Cells were transfected with stealth siRNA (catalog no. HSS104782, catalog no. HSS104784, catalog no. HSS179235; ThermoFisher) targeting HINT-1 using Lipofectamine RNAiMAX (Invitrogen) following the manufacturer's protocol. At 48 hours posttransfection, cells were treated and cell viability was measured 96 hours posttransfection as described above. Samples for Western blot analysis were harvested 48 hours posttransfection. For gene-depletion experiments, approximately 4 × 10^5 HAP1 cells were seeded per well in a 6-well plate and grown to approximately 50% confluency. After 24 hours, cells were transfected with lentiCRISPR v2 plasmid (GenScript) containing a guide RNA (gRNA) targeting gene of interest using Turbofectin (catalog no. TF81001, OriGene) according to manufacturer's instruction. The following sequences were used: HINT-1 CRISPR gRNA 2 ([…]) and NUDT2 CRISPR gRNA 2 ([…]). At 24 hours posttransfection, positively transfected cells were selected using […] puromycin for 72 hours. After selection, surviving colonies were expanded and used for downstream analysis. For clonal selection, clones were selected using limited dilution and expanded into a 6-well plate for Western blot screening.
# [15] = design: method as in PMID 20302371; settings: cited from earlier work
# [16] = NuTide:701 first-in-human phase I study; format: in vivo; settings: human, in vivo
# Method: A Safety Study of NUC-7738 in Patients with Advanced Solid Tumours or Lymphoma, ClinicalTrials number: NCT03829254. Approved by Oxford C Ethics Committee ref 18/SC/0628.
# This study is currently ongoing at three centers in the United Kingdom: Edinburgh, Newcastle, and Oxford. As of June 1, 2021, 28 patients with advanced cancers have been enrolled and received escalating doses of 14–900 mg/m^2 (intravenous infusion from 30–120 minutes) once weekly until dose-limiting toxicity or disease progression occurs. Intrapatient dose escalation ensures those starting at lower dose levels of NUC-7738 are continuously moved to higher doses once safety has been established. The most common cancers to be included are immunotherapy-resistant melanoma (n = 8), colorectal cancer (n = 3), and gastric and lung cancer (n = 2 each). […] A posttreatment biopsy was taken from a patient with melanoma and compared with their archived specimen collected prior to enrolling in the clinical trial. […] Transcriptional profiling of the specimens using RNA-seq identified more than 1,069 genes which were at least 2-fold differentially expressed after treatment with NUC-7738 (Fig. 6C and Supplementary Fig. S6A–C).
# [17] = Beagle dog 4-week toxicology and toxicokinetics
# [18] = all doses, both occasions and genders
smiles,measurement,setting,value
"Nc1ncnc2c1ncn2[C@@H]1O[C@H](CO)C[C@H]1O [3′-dA, 3′-deoxyadenosine, reference compound]",IC50,"[1]; HAP1, 48 hours, MTT, mean (±SEM) of 4 biological replicates, read-out: IC50",49.9 µM
same,IC90,"[1]; HAP1, 48 hours, MTT, mean (±SEM) of 4 biological replicates, read-out: IC90",151 µM
same,IC50,"[1]; HAP1, as stated in RNA-seq method, read-out: IC50 concentration used for RNA-seq",46 µM
same,IC90,"[1]; HAP1, as stated in RNA-seq method, read-out: IC90 concentration used for RNA-seq",375 µM
same,IC50,[2],460 µM
same,IC50,[3],479 µM
same,IC50,[4],393 µM
same,IC50,[5],291 µM
same,IC50,[6],181 µM
same,IC50,[7],385 µM
same,IC50,[8],137 µM
same,IC50,[9],200 µM
same,IC50,[10],360 µM
same,IC50,[11],138 µM
same,"potency upon inhibition of ADA, hENT1 or ADK",[12],"dependent on ADA, hENT1, and ADK"
same,"apoptotic cell death, cleaved PARP-1",[13],induced apoptotic cell death
same,resistance after NUDT2 deletion,[14],Specific resistance
same,half-life in plasma,[15],1.6 min
"Nc1ncnc2c1ncn2[C@@H]1O[C@H](COP(=O)(O)OP(=O)(O)OP(=O)(O)O)C[C@H]1O [3′-dATP, 3′-dA-5′-triphosphate]",intracellular half-life,[16],approximately 50 h
O=c1[nH]cnc2c1ncn2[C@@H]1O[C@H](CO)C[C@H]1O [3′-deoxyinosine],"mean ratio metabolite/parent, AUC 0-t",[17]; [18],1.32
same,"mean ratio metabolite/parent, Cmax",[17]; [18],0.42
same,Tmax,"[17]; both, beagle, plasma, iv",15 min
